From ChEMBL document CHEMBL4680355, “Staphylococcus aureus resistance to albocycline can be achieved by mutations that alter cellular NAD/PH pools” (Bioorg Med Chem, 2021)
Values after ≈ are worked out from the molar mass of the structure shown.

Experiments:
Staphylococcus aureus [1] = test: Antibacterial activity against Staphylococcus aureus UAMS-1 assessed as growth inhibition incubated at 16 to 24 hrs by CLSI method; assay type: functional; conditions: time 16-24 hrs
Staphylococcus aureus [2] = test: Antibacterial activity against Staphylococcus aureus UAMS-1 AlbR A resistant mutant assessed as growth inhibition incubated at 16 to 24 hrs by CLSI method; assay type: functional; conditions: time 16-24 hrs
Staphylococcus aureus [3] = test: Antibacterial activity against Staphylococcus aureus UAMS-1 AlbR B resistant mutant assessed as growth inhibition incubated at 16 to 24 hrs by CLSI method; assay type: functional; conditions: time 16-24 hrs
Staphylococcus aureus [4] = test: Antibacterial activity against Staphylococcus aureus UAMS-1 AlbR C resistant mutant assessed as growth inhibition incubated at 16 to 24 hrs by CLSI method; assay type: functional; conditions: time 16-24 hrs
Staphylococcus aureus [5] = test: Antibacterial activity against Staphylococcus aureus UAMS-1 AlbR D resistant mutant assessed as growth inhibition incubated at 16 to 24 hrs by CLSI method; assay type: functional; conditions: time 16-24 hrs
Staphylococcus aureus [6] = test: Antibacterial activity against Staphylococcus aureus USA300 Tn mutant assessed as growth inhibition incubated at 16 to 24 hrs by CLSI method; assay type: functional; conditions: time 16-24 hrs
Staphylococcus aureus [7] = test: Antibacterial activity against Staphylococcus aureus NE939 Tn mutant assessed as growth inhibition incubated at 16 to 24 hrs by CLSI method; assay type: functional; conditions: time 16-24 hrs
Staphylococcus aureus [8] = test: Antibacterial activity against Staphylococcus aureus NE1416 Tn mutant assessed as growth inhibition incubated at 16 to 24 hrs by CLSI method; assay type: functional; conditions: time 16-24 hrs
Bacterial 70S ribosome [9] = test: Binding affinity to Staphylococcus aureus 70S ribosome assessed as reduction in BODIPY-Erythromycin A binding incubated for 1.5 hr by fluorescence polarization assay; assay type: subcellular
Bacterial 70S ribosome [10] = test: Binding affinity to Staphylococcus aureus 70S ribosome assessed as dissociation constant by measuring reduction in BODIPY-Erythromycin A binding incubated for 1.5 hr by fluorescence polarization assay; assay type: subcellular
Staphylococcus aureus [11] = test: Inhibition of Staphylococcus aureus MurA expressed in Escherichia coli BL21(DE3) assessed as Vmax for DP-G1cNAc to EU- DP-G1cNAc conversion at 50 uM preincubated for 15 mins by HPLC method (reference value: 0.235 +/- 0.049 uM/min)
Staphylococcus aureus [12] = test: Inhibition of Staphylococcus aureus MurA expressed in Escherichia coli BL21(DE3) assessed as Vmax for DP-G1cNAc to EU- DP-G1cNAc conversion at 100 uM preincubated for 15 mins by HPLC method (reference value: 0.235 +/- 0.049 uM/min)
Staphylococcus aureus [13] = test: Inhibition of Staphylococcus aureus MurA expressed in Escherichia coli BL21(DE3) assessed as Vmax for DP-G1cNAc to EU- DP-G1cNAc conversion at 150 uM preincubated for 15 mins by HPLC method (reference value: 0.235 +/- 0.049 uM/min)
Staphylococcus aureus [14] = test: Inhibition of Staphylococcus aureus MurA expressed in Escherichia coli BL21(DE3) assessed as Kcat for DP-G1cNAc to EU- DP-G1cNAc conversion at 50 uM preincubated for 15 mins by HPLC method (reference value: 0.471 +/- 0.994 /min)
Staphylococcus aureus [15] = test: Inhibition of Staphylococcus aureus MurA expressed in Escherichia coli BL21(DE3) assessed as Kcat for DP-G1cNAc to EU- DP-G1cNAc conversion at 100 uM preincubated for 15 mins by HPLC method (reference value: 0.471 +/- 0.994 /min)
Staphylococcus aureus [16] = test: Inhibition of Staphylococcus aureus MurA expressed in Escherichia coli BL21(DE3) assessed as Kcat for DP-G1cNAc to EU- DP-G1cNAc conversion at 150 uM preincubated for 15 mins by HPLC method (reference value: 0.471 +/- 0.994 /min)
Staphylococcus aureus [17] = test: Synergistic antibacterial activity against Staphylococcus aureus UAMS-1 assessed as fractional inhibitory concentration index in presence of fosfomycin by broth microdilution assay; assay type: functional
Staphylococcus aureus [18] = test: Synergistic antibacterial activity against Staphylococcus aureus UAMS-1 AlbR A resistant mutant assessed as fractional inhibitory concentration index in presence of fosfomycin by broth microdilution assay; assay type: functional
Staphylococcus aureus [19] = test: Synergistic antibacterial activity against Staphylococcus aureus UAMS-1 AlbR B resistant mutant assessed as fractional inhibitory concentration index in presence of fosfomycin by broth microdilution assay; assay type: functional
Staphylococcus aureus [20] = test: Synergistic antibacterial activity against Staphylococcus aureus UAMS-1 AlbR C resistant mutant assessed as fractional inhibitory concentration index in presence of fosfomycin by broth microdilution assay; assay type: functional
Staphylococcus aureus [21] = test: Synergistic antibacterial activity against Staphylococcus aureus UAMS-1 AlbR D resistant mutant assessed as fractional inhibitory concentration index in presence of fosfomycin by broth microdilution assay; assay type: functional
[22] = Inhibition of Staphylococcus aureus MurA expressed in Escherichia coli BL21(DE3) assessed as using DP-G1cNAc as substrate preincubated for 15 mins by HPLC method

In the case of `C[C@@H]1O[C@@H]1P(=O)(O)O` [FOSFOMYCIN], the MIC (Staphylococcus aureus [1]) is reported as 16 mg/L (≈ 116 µM), the MIC (Staphylococcus aureus [2]) is reported as 16 mg/L (≈ 116 µM) and the MIC (Staphylococcus aureus [3]) is reported as 16 mg/L (≈ 116 µM). It also gave an MIC (Staphylococcus aureus [4]) of 16 mg/L (≈ 116 µM), an MIC (Staphylococcus aureus [5]) of 16 mg/L (≈ 116 µM) and an MIC (Staphylococcus aureus [6]) of 32 mg/L (≈ 232 µM). The MIC (Staphylococcus aureus [7]) was 4 mg/L (≈ 29 µM) and the MIC (Staphylococcus aureus [8]) was 16 mg/L (≈ 116 µM).

`CC[C@H]1OC(=O)[C@@](C)(F)C(=O)[C@H](C)[C@@H](O[C@@H]2O[C@H](C)C[C@H](N(C)C)[C@H]2O)[C@](C)(OC)C[C@@H](C)C(=O)[C@H](C)[C@H]2N(CCCCn3cc(-c4cccc(N)c4)nn3)C(=O)O[C@]12C` [SOLITHROMYCIN] showed a Ki (Bacterial 70S ribosome [9]) of 0.0603 µM.

`CO[C@H]1/C=C/[C@@](C)(O)/C=C/C(=O)O[C@H](C)[C@@H](C)CC/C=C/1C` gave a Kd (Bacterial 70S ribosome [10]) of 0.0024 µM, a Vmax (Staphylococcus aureus [11]) of 0.157 µM/min and a Vmax (Staphylococcus aureus [12]) of 0.0722 µM/min. The Vmax (Staphylococcus aureus [13]) was 0.0476 µM/min, the kcat (Staphylococcus aureus [14]) was 0.00523 s⁻¹ and the kcat (Staphylococcus aureus [15]) was 0.0024 s⁻¹. For the same compound, the kcat (Staphylococcus aureus [16]) was 0.00159 s⁻¹, the MIC (Staphylococcus aureus [1]) was 1 mg/L (≈ 3.24 µM) and the MIC (Staphylococcus aureus [2]) was 512 mg/L (≈ 1660 µM). For the same compound, the MIC (Staphylococcus aureus [3]) was 512 mg/L (≈ 1660 µM), the MIC (Staphylococcus aureus [4]) was > 1020 mg/L and the MIC (Staphylococcus aureus [5]) was > 1020 mg/L. The MIC (Staphylococcus aureus [6]) was 1 mg/L (≈ 3.24 µM), the MIC (Staphylococcus aureus [7]) was 1 mg/L (≈ 3.24 µM) and the MIC (Staphylococcus aureus [8]) was > 256 mg/L. The “fractional inhibitory concentration index (FICI)” value (Staphylococcus aureus [17]) was 1.004, the “fractional inhibitory concentration index (FICI)” value (Staphylococcus aureus [18]) was 0.5 and the “fractional inhibitory concentration index (FICI)” value (Staphylococcus aureus [19]) was 0.25. For the same compound, the “fractional inhibitory concentration index (FICI)” value (Staphylococcus aureus [20]) was 0.25, the “fractional inhibitory concentration index (FICI)” value (Staphylococcus aureus [21]) was 0.5 and the Ki [22] was 23.6 µM.
